# In article PMC4132841 (Neuron, 2012):
# “And” between values parts separate entries of the source, which are not always exact repeats. Identical values can stand only once. Like-named read-outs stand apart in the source and are kept apart here.
# Columns and labels:
# GluK2b(Q) and GluK3 = GluK2b(Q) and GluK3 (Rattus norvegicus, UniProt P42264); experiment: Glutamate-activated currents in HEK293 cells cotransfected with GluK2b; assay type: cell-based; conditions: 1 μM UBP310; n = 6
# [1] = test system: extracellular domain of GluK3 and the transmembrane and intracellular segments of GluK2; experiment: Whole-cell glutamate currents of chimeric receptor; assay type: cell-based, rat; conditions: 100 μM zinc; 10 mM glutamate, 100 ms; n = 5
# GluK3 [2] = biological target: T1, GluK3 (Rattus norvegicus, UniProt P42264); assay type: cell-based
# T1 sequence (P42264 32-919): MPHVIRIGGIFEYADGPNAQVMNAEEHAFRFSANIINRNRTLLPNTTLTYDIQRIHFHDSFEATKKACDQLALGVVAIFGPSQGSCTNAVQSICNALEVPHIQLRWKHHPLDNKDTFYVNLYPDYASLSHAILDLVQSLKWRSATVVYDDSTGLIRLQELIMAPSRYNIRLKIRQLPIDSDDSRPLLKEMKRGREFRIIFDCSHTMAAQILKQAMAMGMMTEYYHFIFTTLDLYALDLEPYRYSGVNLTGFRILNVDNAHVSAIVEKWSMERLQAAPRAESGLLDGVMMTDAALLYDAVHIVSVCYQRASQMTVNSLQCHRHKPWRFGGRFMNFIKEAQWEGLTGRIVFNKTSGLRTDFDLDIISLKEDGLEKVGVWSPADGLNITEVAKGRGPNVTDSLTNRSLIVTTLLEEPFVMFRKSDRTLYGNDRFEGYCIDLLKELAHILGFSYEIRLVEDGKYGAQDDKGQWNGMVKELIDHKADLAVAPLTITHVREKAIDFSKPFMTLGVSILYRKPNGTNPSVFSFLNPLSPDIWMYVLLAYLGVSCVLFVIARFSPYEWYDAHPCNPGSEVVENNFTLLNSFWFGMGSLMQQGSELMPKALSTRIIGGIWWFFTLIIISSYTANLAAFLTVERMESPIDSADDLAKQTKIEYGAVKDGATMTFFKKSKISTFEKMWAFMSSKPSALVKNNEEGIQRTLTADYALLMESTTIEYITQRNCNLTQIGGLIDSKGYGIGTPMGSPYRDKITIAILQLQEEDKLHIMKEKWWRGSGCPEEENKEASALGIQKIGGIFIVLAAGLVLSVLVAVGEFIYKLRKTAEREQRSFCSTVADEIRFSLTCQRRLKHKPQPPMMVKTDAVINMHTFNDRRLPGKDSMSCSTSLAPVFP
# GluK2(Y490H) = GluK2(Y490H) (Rattus norvegicus, UniProt P42260, Y521H); experiment: Glutamate currents of point mutant; assay type: cell-based; conditions: 100 μM zinc; 10 mM glutamate
# GluK2(G758D) = GluK2(G758D) (Rattus norvegicus, UniProt P42260, G789D); experiment: Glutamate currents of point mutant, outside-out patches; assay type: cell-based; conditions: 100 μM zinc; 10 mM glutamate; n = 6
# GluN1/GluN2B = conditions: ref Paoletti et al., 1997; cited from earlier work
# GluK3(H492Y) = GluK3(H492Y) (Rattus norvegicus, UniProt P42264, H523Y); experiment: Glutamate currents of point mutant; assay type: cell-based; conditions: 100 μM zinc; 10 mM glutamate
# GluK3(H492Y), sequence (P42264 32-919 H523Y): as the sequence (P42264 32-919) above, with H492Y counted along it
# GluK2b(D729A) and GluK3 = GluK2b(D729A) and GluK3 (Rattus norvegicus, UniProt P42260+P42264, D760A); experiment: Glutamate currents of heteromeric mutant receptors; assay type: cell-based; conditions: 10 mM glutamate
# GluK3 [3] = biological target: T1, GluK3; assay type: cell-based; conditions: for effect of zinc on GluK3 currents: 100 μM zinc
# GluK3(H762A) = GluK3(H762A) (Rattus norvegicus, UniProt P42264, H793A); experiment: Glutamate currents of point mutant, outside-out patches; assay type: cell-based; conditions: 100 μM zinc; 10 mM glutamate; n = 5
# GluK3(H762A), sequence (P42264 32-919 H793A): as the sequence (P42264 32-919) above, with H762A counted along it
# GluK3/K2S2 = GluK3/K2S2 (Rattus norvegicus, UniProt P42260+P42264, A594P/A717V/A732S/D593N/D790G/E602D/E705D/F704Y/G600D/I638V/I746V/I767V/I794M/I818V/I844L/INS713R/K688E/K714R/K820N/L736F/L837F/M618V/N721S/N810S/P715Q/S620A/S803N/T729V/V569I/Y745F); experiment: Whole-cell glutamate currents of S2 chimera; assay type: cell-based; conditions: 100 μM zinc; 10 mM glutamate, 100 ms; n = 5
# [4] = test system: transmembrane and intracellular segments of GluK3 and the extracellular domain of GluK2; experiment: Whole-cell glutamate currents of chimeric receptor; assay type: cell-based, rat; conditions: 100 μM zinc; 10 mM glutamate, 100 ms; n = 4
# [5] = biological target: GluK2 receptors where the ATD was excised (Rattus norvegicus, UniProt P42260); experiment: Whole-cell glutamate currents of ATD-deleted receptor; assay type: cell-based; conditions: 100 μM zinc; 10 mM glutamate, 100 ms; n = 4
# GluK2/K3S2 = experiment: Whole-cell glutamate currents of S2 chimera; assay type: cell-based, rat; conditions: 100 μM zinc; 10 mM glutamate, 100 ms; n = 5
# [6] = biological target: heteromeric GluK2/GluK3 receptors (Rattus norvegicus, UniProt P42260+P42264); experiment: Glutamate currents of heteromeric GluK2b; assay type: cell-based
# GluK3(D759G) = GluK3(D759G) (Rattus norvegicus, UniProt P42264, D790G); experiment: Glutamate currents of point mutant, outside-out patches; assay type: cell-based; conditions: 100 μM zinc; 10 mM glutamate; n = 5
# GluK3(D759G), sequence (P42264 32-919 D790G): as the sequence (P42264 32-919) above, with D759G counted along it
# GluK1-GluK2 = conditions: read-out: IC50 of zinc inhibition; ref Mott et al., 2008; cited from earlier work
# GluK3(H492A) = GluK3(H492A) (Rattus norvegicus, UniProt P42264, H523A); experiment: Glutamate currents of point mutant; assay type: cell-based; conditions: 100 μM zinc; 10 mM glutamate
# GluK3(H492A), sequence (P42264 32-919 H523A): as the sequence (P42264 32-919) above, with H492A counted along it
# GluK3(H492C, L753C) = GluK3(H492C, L753C) (Rattus norvegicus, UniProt P42264, H523C/L784C); experiment: Glutamate currents of desensitization mutant GluK3; assay type: cell-based; conditions: 100 μM zinc; 10 mM glutamate, 100 ms
# GluK3(H492C, L753C), sequence (P42264 32-919 H523C/L784C): as the sequence (P42264 32-919) above, with H492C, L753C counted along it
# GluK2 [7] = biological target: T2, GluK2 (Rattus norvegicus, UniProt P42260); assay type: cell-based; conditions: 10 mM glutamate
# GluK3(ERLK) = GluK3(ERLK) (Rattus norvegicus, UniProt P42264, I781L/K527E/K698R/Q785K); experiment: Glutamate currents of desensitization mutant GluK3; assay type: cell-based; conditions: 100 μM zinc
# GluK3(ERLK), sequence (P42264 32-919 K527E/K698R/I781L/Q785K): as the sequence (P42264 32-919) above, with K496E, K667R, I750L, Q754K counted along it
# GluK2b and GluK3(D730A) = GluK2b and GluK3(D730A) (Rattus norvegicus, UniProt P42260+P42264, D761A); experiment: Glutamate currents of heteromeric mutant receptors, 1 μM UBP310 present; assay type: cell-based; conditions: 100 μM zinc, 10 mM glutamate
# [8] = test system: KARs containing GluK4 or GluK5 subunits; conditions: read-out: IC50 of zinc inhibition; ref Mott et al., 2008; cited from earlier work
# [9] = biological target: GluK3 subunits deleted of their ATD (Rattus norvegicus, UniProt P42264); experiment: Whole-cell glutamate currents of ATD-deleted receptor; assay type: cell-based; conditions: 100 μM zinc; 10 mM glutamate, 100 ms; n = 5
# GluK3 subunits deleted of their ATD, sequence (P42264 376-919, stated change not applied): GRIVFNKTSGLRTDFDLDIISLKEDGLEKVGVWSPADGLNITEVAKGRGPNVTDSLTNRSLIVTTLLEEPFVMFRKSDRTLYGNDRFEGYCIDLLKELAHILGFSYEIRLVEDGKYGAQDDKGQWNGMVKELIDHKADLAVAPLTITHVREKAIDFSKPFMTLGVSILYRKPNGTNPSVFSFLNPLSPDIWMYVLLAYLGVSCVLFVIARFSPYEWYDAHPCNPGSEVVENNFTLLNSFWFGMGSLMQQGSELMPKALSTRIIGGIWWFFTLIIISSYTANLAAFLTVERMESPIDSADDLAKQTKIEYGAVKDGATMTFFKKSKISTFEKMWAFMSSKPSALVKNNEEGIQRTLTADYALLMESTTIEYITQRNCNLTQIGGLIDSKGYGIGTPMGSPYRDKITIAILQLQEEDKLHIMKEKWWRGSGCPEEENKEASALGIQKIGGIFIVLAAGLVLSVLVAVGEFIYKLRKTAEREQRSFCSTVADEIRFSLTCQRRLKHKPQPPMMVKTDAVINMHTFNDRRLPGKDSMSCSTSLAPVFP
# GluK2 [10] = biological target: T2, GluK2; assay type: cell-based; conditions: 100 μM zinc; control 3.4 ± 0.1 ms; n = 5; p = 0.20
# GluK3(D730N) = GluK3(D730N) (Rattus norvegicus, UniProt P42264, D761N); experiment: Glutamate currents of point mutant, outside-out patches; assay type: cell-based; conditions: 100 μM zinc; 10 mM glutamate
# GluK3(D730N), sequence (P42264 32-919 D761N): as the sequence (P42264 32-919) above, with D730N counted along it
# GluK3(D730A) = GluK3(D730A) (Rattus norvegicus, UniProt P42264, D761A); experiment: as above; assay type: cell-based; conditions: 100 μM zinc; 10 mM glutamate; n = 6
# GluK3(D730A), sequence (P42264 32-919 D761A): as the sequence (P42264 32-919) above, with D730A counted along it
# GluN1/GluN2A receptors = conditions: ref Paoletti et al., 1997; cited from earlier work
# [11] = combined potentiation/inhibition Hill equations
# GluK2b(Q) and GluK3, sequence (P42264 32-919): as the sequence (P42264 32-919) above
compound,measurement,setting,value
Cc1cn(C[C@H](N)C(=O)O)c(=O)n(Cc2ccsc2C(=O)O)c1=O [UBP310],inhibition of glutamate-activated currents,GluK2b(Q) and GluK3,55%
"[Cl-].[Cl-].[Zn+2] [zinc, ZnCl2]","current amplitude with zinc, % of control amplitude",[1],175% ± 9%
same,τdes (current decay) with zinc,"GluK3 [2]; 100 μM zinc, 10 mM glutamate, 100 ms, control 5.0 ± 0.2 ms, n = 8",9.8 ± 0.4 ms
same,time for half-recovery from desensitization with zinc,"GluK3 [2]; 100 μM zinc, absence of zinc 902 ± 1.1 ms, n = 5",460 ± 1.2 ms
same,deactivation kinetics with zinc,"GluK3 [2]; 1 ms pulses of 10 mM glutamate, control 1.5 ± 0.05 ms, n = 4",2.3 ± 0.1 ms
same,"current amplitude with zinc, % of control amplitude","GluK3 [2]; 1 ms pulses of 10 mM glutamate, n = 4",191% ± 22%
same,effect of zinc on glutamate currents,GluK2(Y490H),inhibited
same,"current amplitude with zinc, % of control amplitude",GluK2(G758D),177% ± 7%
same,affinity of zinc inhibition of NMDAR function,GluN1/GluN2B,low micromolar
same,effect of zinc on glutamate currents,GluK3(H492Y),still potentiated
same,effect of zinc on glutamate currents,GluK2b(D729A) and GluK3,did not potentiate
same,"current amplitude with zinc, % of control amplitude","GluK3 [3]; 100 μM zinc preapplied, 10 mM glutamate, 100 ms, whole-cell, n = 17",193% ± 38%
same,effect of zinc on GluK3 currents,GluK3 [3]; pH 6.8,inhibited
same,effect of zinc on GluK3 currents,GluK3 [3]; pH 8.3,potentiated
same,zinc concentrations that clearly inhibit currents,GluK3 [3]; WT GluK3 receptors,above 300 μM
same,maximal potentiation of GluK3 currents by zinc,GluK3 [3]; [11],475% ± 47%
same,nH of zinc potentiation of GluK3 currents,GluK3 [3]; [11],1.82 ± 0.95
same,zinc concentrations that potentiate glutamate currents,GluK3 [3]; homomeric and heteromeric KARs containing GluK3,10 to 100 µM
same,effect of zinc on GluK3-mediated currents,"GluK3 [3]; simultaneous application of zinc and glutamate, data not shown",does not potentiate
same,"peak amplitude with zinc, %",GluK3(H762A),45% ± 6%
same,"current with zinc (inhibited), %",GluK3/K2S2,54% ± 6%
same,"current with zinc (inhibited), %",[4],40% ± 8%
same,"current with zinc (inhibition), %",[5],44% ± 11%
same,"current with zinc (facilitated), %",GluK2/K3S2,197% ± 9%
same,"UBP310-resistant current with zinc, % of control","[6]; 100 μM zinc, 10 mM glutamate, 1 μM UBP310, n = 18",157% ± 7%
same,"maximal potentiation by zinc, % of control","[6]; 10 mM glutamate, Hill fit",286%
same,nH of zinc potentiation of GluK2/GluK3 currents,"[6]; 10 mM glutamate, Hill fit",0.6 and 0.6 ± 0.4
same,inhibition of GluK2/GluK3 currents by high zinc,[6]; zinc concentrations up to 1 mM,no inhibition
same,"current with zinc (inhibited), %",GluK3(D759G),32% ± 9%
same,IC50,GluK1-GluK2,~70 µM
same,effect of zinc on glutamate currents,GluK3(H492A),still potentiated
same,effect of zinc on glutamate currents,"GluK3(H492C, L753C)",inhibited
same,Hill coefficient (nH) of zinc inhibition of GluK2 currents,GluK2 [7],1.1 and 1.1 ± 0.1
same,effect of zinc on desensitization rate,GluK3(ERLK),no change
same,effect of zinc on glutamate currents,"GluK3(ERLK); 10 mM glutamate, 100 ms",inhibited rather than potentiated
same,effect of zinc on glutamate currents,GluK2b and GluK3(D730A),potentiation
same,IC50,[8],1 to 2 µM
same,"current with zinc (potentiation), %",[9],186% ± 13%
same,τdes (current decay) with zinc,GluK2 [10],3.7 ± 0.1 ms
same,effect of zinc on glutamate currents,GluK3(D730N),retained zinc potentiation
same,"current amplitude with zinc, % of control amplitude",GluK3(D730A),33% ± 2%
same,affinity of zinc inhibition of NMDAR function,GluN1/GluN2A receptors,low nanomolar
